Measured values: patent US11034654B2, “2,3-dihydroisoindole-1-carboxamides useful as ROR-gamma modulators” (AstraZeneca AB, priority 2017, dated 2021)

Assays:
[1] = target: T1, RORγ ligand binding domain (Homo sapiens, UniProt P51449); assay: RORγ radioligand competition binding assay (SPA); settings: competition with tritiated 2-(4-(ethylsulfonyl)phenyl)-N-(4-(2-(methoxymethyl)phenyl)thiophen-2-yl)acetamide (25 nM), hRORγ LBD
Excerpt: RORγ Radioligand Competition Binding Assay The aim of this assay is to identify compounds which bind to the RORγ ligand binding domain, by competing with tritiated 2-(4-(ethylsulfonyl)phenyl)-N-(4-(2-(methoxymethyl)phenyl)thiophen-2-yl)acetamide. Human RORγ (Ligand Binding Domain (RORγ LBD) was expressed in E. coli (BL21DE3 Star) as a fusion protein: N-6×HN-Avi-GST-TCS-hRORγ LBD (S258-K518) subcloned into pET24a(+). The LBD (258-518) is underlined in the protein sequence: The scintillation proximity assay (SPA) was run in white polystyrene flat-bottom 384-well plates (Greiner, cat. No. 781075). Assays were carried out in 40 μl reaction volumes. Various concentrations of test ligands in 0.4 microlitres of DMSO were added to assay plates using an acoustic liquid dispenser. 4 nM purified N-(HN)6-GST-TCS-hRORγ (258-518) was mixed with 40 micrograms Yttrium oxide (YOx) glutathione SPA imaging beads in assay buffer (20 mM Tris, 150 mM NaCl, 10% Glycerol, 0.25% CHAPS, 1 mM TCEP) prior to adding 30 microlitres to test ligands. Assay plates were incubated for one hour at room temperature before adding 10 microlitres tritiated 2-(4-(ethylsulfonyl)phenyl)-N-(4-(2-(methoxymethyl)phenyl)thiophen-2-yl)acetamide to test plates in assay buffer (final concentration, 25 nM). Test plates were incubated for 16 hours and read using a LEADseeker Multimodality imaging instrument. The raw data was analysed and IC50 and Ki values for the compounds were calculated using Genedata Screener software. Raw data was transformed to % effect using equation 1: Compound % effect=100*[(X−min)/(max−min)], where X represents the normalized value for the compound based on the Min (vehicle) and Max (reference compound) inhibition controls. The concentration of test ligand that inhibited radioligand binding by 50% (i.e., the IC50) was calculated by plotting the % effect versus test ligand concentration and fitting the data using the Genedata Screener Smart fit algorithm. Ki is calculated from the IC50 value using the equation Ki=IC50/1+[L]/Kd) where [L]=25 nmol/L and Kd=17 nmol/L

human TH17 cells = assay: Inhibition of IL-17 release from human TH17 cells; format: cell-based; settings: 96 h; isolated human TH17 cells cultured 4 days, IL-17A in supernatant by HTRF; read-out: pIC50 IL-17 release (converted)
Excerpt: Inhibition of IL-17 Release from Human TH17 Cells
This test is designed to screen compounds for their inhibitory effect on the release of IL-17 from isolated and cultured human TH17 cells.
Peripheral blood mononuclear cells (PBMC) were isolated from heparin treated human whole blood from healthy donors by density gradient centrifugation. TH17 cells (CD4+CXCR3−CCR6+) were enriched using a human TH17 Cell Enrichment Kit (Stemcell Technologies) according to the manufacturer's protocol. The isolated TH17 cells were activated with aCD3aCD28 beads (MACS Miltenyi) and cultured in X-Vivo15 medium (Lonza) supplemented with L-glutamine, β-mercaptoethanol and a cytokine cocktail consisting of; IL-2, IL-23, IL-1β, IL-6, TGF-β. Cells were seeded at 8000 cells/well in a 384-plate (Corning, #3707) in the presence of compounds or DMSO and cultured for 4 days (37° C., 5% CO2). On day 4 supernatants were collected and IL-17A was measured using a Human IL-17 HTRF Assay kit (Cisbio Bioassays) according to the manufacturer's protocol. The IC50 values for the tested compounds was calculated using Genedata Screener® software (Genedata) using the following calculation method; Compound % effect=100*[(X−min)/(max−min)], where X represents the normalized value for the compound based on the Min (DMSO) and Max (compound 3-(1,3-benzodioxol-5-yl)-1-(3,5-dimethylpiperidin-1-yl)-3-(2-hydroxy-4,6-dimethoxyphenyl)propan-1-one at 10 μM, described in J. R. Hu et al. ACS Med. Chem. Lett. 2013, 4, 79-84) inhibition controls. Results

[2] = target: T1, RORγ ligand binding domain; assay: RORγ co-factor recruitment assay (FRET); format: biochemical; parameters: made in house; host or cells: E. coli BL21DE3 Star; settings: inhibition of recruitment of SRC-1 peptide (NCOA1_677-700) to hRORγ LBD, HTRF read-out
Excerpt: RORγ Co-Factor Recruitment Assay A high throughput coactivator binding assay for the identification of inverse agonists of the recruitment of peptide SRC-1 (NCOA1_677-_700) to the RORγ ligand binding domain was established. The ligand binding domain (LBD) of human RORγ was expressed in E. coli (BL21DE3 Star) as a fusion protein: N-6×HN-MBP-Avi-TCS-hRORγLBD(P260-K518) subcloned into pET24a(+). The LBD (P260-K518) is underlined in the protein sequence: The assay was run in black 384 well plates (Greiner cat no: 784900). Various concentrations of test ligands in 0.1 microlitres DMSO were dispensed to assay plates using an Echo acoustic dispenser. Two pre-mixes were prepared and incubated for 1 h at room temp in the dark. Pre-mix 1 comprised 100 nM Protein (Biotinylated HN-Avi-MBP-TCS-hRORγ (258-518)) and 60 nM Streptavidin APC in assay buffer, 50 mM MOPS pH7.4, 50 mM KF, 0.003% (w/v) CHAPS, 10 mM DTT and 0.01% (w/v) BSA and pre-mix 2 comprised 160 nM biotinylated SRC-1 peptide (NCOA1-677-700) and 20 nM Europium-W8044 labelled Streptavidin in assay buffer. Five microlitres of pre-mix 2 was dispensed to assay plates containing 0.1 microlitres of test compound and was incubated for 15 min prior to adding five microlitres of pre-mix 1. Plates were incubated at rt for 1 hour in the dark, prior to reading in a Pherastar multi-mode plate reader using HTRF filter set (ex 320, em 612 and 665). The FRET signal at 665 nm was divided by the signal at 612 nm and multiplied by 10,000 to generate a signal ratio value for each well. The raw data was transformed to % effect using the equation: Compound % effect=100*[(X−min)/(max−min)], where X represents the normalized value for the compound based on the Min (vehicle) and Max (reference compound) inhibition control. The concentration of test ligand that inhibited the activity by 50% (i.e., the IC50) was calculated by plotting the % effect versus test ligand concentration and fitting the data using the Genedata Screener Smart fit algorithm.

IC50 [1] [nM]	IC50 (human TH17 cells) [nM]	IC50 [2] [nM]	SMILES
7.94	25.1	100	N#CC(c1ccc(NC(=O)C2NCc3cc(S(=O)(=O)CC4CC4)ccc32)cc1)(C(F)(F)F)C(F)(F)F (stereo not drawn) [Example 12, N-[4-(2-Cyano-1,1,1,3,3,3-hexafluoropropan-2-yl)phenyl]-5-[(cyclopropylmethyl)sulfonyl]-2,3-dihydro-1H-isoindole-1-carboxamide]
31.6	20	100	COCCNC(c1ccc(NC(=O)C2c3ccc(S(C)(=O)=O)cc3CN2C(C)=O)cc1)(C(F)(F)F)C(F)(F)F (stereo not drawn) [Example 17, 2-Acetyl-N-(4-{1,1,1,3,3,3-hexafluoro-2-[(2-methoxyethyl)amino]propan-2-yl}phenyl)-5-(methylsulfonyl)-2,3-dihydro-1H-isoindole-1-carboxamide]
794	200	200	COC(=O)CC(c1ccc(NC(=O)C2NCc3cc(S(C)(=O)=O)ccc32)cc1)(C(F)(F)F)C(F)(F)F (stereo not drawn) [Example 31, Methyl 4,4,4-trifluoro-3-[4-[(5-methylsulfonylisoindoline-1-carbonyl)amino]phenyl]-3-(trifluoromethyl)butanoate]
200	100	126	CS(=O)(=O)c1ccc2c(c1)CNC2C(=O)Nc1ccc(C(C#N)(C(F)(F)F)C(F)(F)F)cc1 (stereo not drawn) [Example 1, N-[4-(2-Cyano-1,1,1,3,3,3-hexafluoropropan-2-yl)phenyl]-5-(methylsulfonyl)-2,3-dihydro-1H-isoindole-1-carboxamide]
15.8	10	126	CC(=O)N1Cc2cc(S(C)(=O)=O)ccc2C1C(=O)Nc1ccc(C(C#N)(C(F)(F)F)C(F)(F)F)cc1 (stereo not drawn) [Example 2, 2-Acetyl-N-[4-(2-cyano-1,1,1,3,3,3-hexafluoropropan-2-yl)phenyl]-5-(methylsulfonyl)-2,3-dihydro-1H-isoindole-1-carboxamide]
50.1	25.1	200	COC1(CNC(c2ccc(NC(=O)C3c4ccc(S(C)(=O)=O)cc4CN3C(C)=O)cc2)(C(F)(F)F)C(F)(F)F)CC1 (stereo not drawn) [Example 18, 2-Acetyl-N-[4-(1,1,1,3,3,3-hexafluoro-2-{[(1-methoxycyclopropyl)methyl]amino}propan-2-yl)phenyl]-5-(methylsulfonyl)-2,3-dihydro-1H-isoindole-1-carboxamide]
5.01	3.98	39.8	CC(=O)N1Cc2cc(S(C)(=O)=O)ccc2C1C(=O)Nc1ccc(C(N2CCCC2)(C(F)(F)F)C(F)(F)F)cc1 (stereo not drawn) [Example 15, 2-Acetyl-N-{4-[1,1,1,3,3,3-hexafluoro-2-(pyrrolidin-1-yl)propan-2-yl]phenyl}-5-(methylsulfonyl)-2,3-dihydro-1H-isoindole-1-carboxamide]
39.8	25.1	126	CC(=O)N1Cc2cc(S(C)(=O)=O)ccc2C1C(=O)Nc1ccc(C(c2nnn(C)n2)(C(F)(F)F)C(F)(F)F)cc1 (stereo not drawn) [Example 30, 2-Acetyl-N-{4-[1,1,1,3,3,3-hexafluoro-2-(2-methyl-2H-tetrazol-5-yl)propan-2-yl]phenyl}-5-(methylsulfonyl)-2,3-dihydro-1H-isoindole-1-carboxamide]
10		39.8	CS(=O)(=O)c1ccc2c(c1)CN(C=O)C2C(=O)Nc1ccc(C(C#N)(C(F)(F)F)C(F)(F)F)cc1 (stereo not drawn) [Example 6, N-[4-(2-Cyano-1,1,1,3,3,3-hexafluoropropan-2-yl)phenyl]-2-formyl-5-(methylsulfonyl)-2,3-dihydro-1H-isoindole-1-carboxamide]
7.94		> 31600	CC(=O)N1Cc2cc(S(C)(=O)=O)ccc2C1C(=O)Nc1ccc(C(NCCOC(C)C)(C(F)(F)F)C(F)(F)F)cc1 (stereo not drawn) [Example 27, 2-Acetyl-N-[4-(1,1,1,3,3,3-hexafluoro-2-{[2-(propan-2-yloxy)ethyl]amino}propan-2-yl)phenyl]-5-(methylsulfonyl)-2,3-dihydro-1H-isoindole-1-carboxamide]
631		1000	CC(=O)N1Cc2cc(S(C)(=O)=O)ccc2C1C(=O)Nc1ccc(C(NCCS(C)(=O)=O)(C(F)(F)F)C(F)(F)F)cc1 (stereo not drawn) [Example 26, 2-Acetyl-N-[4-(1,1,1,3,3,3-hexafluoro-2-{[2-(methylsulfonyl)ethyl]amino}propan-2-yl)phenyl]-5-(methylsulfonyl)-2,3-dihydro-1H-isoindole-1-carboxamide]
12.6		> 31600	CC(=O)N1Cc2cc(S(C)(=O)=O)ccc2C1C(=O)Nc1ccc(C(CC(=O)OC(C)C)(C(F)(F)F)C(F)(F)F)cc1 (stereo not drawn) [Example 40, Propan-2-yl 3-[4-({[2-acetyl-5-(methylsulfonyl)-2,3-dihydro-1H-isoindol-1-yl]carbonyl}amino)phenyl]-4,4,4-trifluoro-3-(trifluoromethyl)butanoate]
25.1		79.4	CS(=O)(=O)c1ccc2c(c1)CN(C(=O)CN)C2C(=O)Nc1ccc(C(C#N)(C(F)(F)F)C(F)(F)F)cc1 (stereo not drawn) [Example 10, N-[4-(2-Cyano-1,1,1,3,3,3-hexafluoropropan-2-yl)phenyl]-2-glycyl-5-(methylsulfonyl)-2,3-dihydro-1H-isoindole-1-carboxamide]
10		100	CS(=O)(=O)c1ccc2c(c1)CN(C(=O)CCC(=O)O)C2C(=O)Nc1ccc(C(C#N)(C(F)(F)F)C(F)(F)F)cc1 (stereo not drawn) [Example 9, 4-[1-{[4-(2-Cyano-1,1,1,3,3,3-hexafluoropropan-2-yl)phenyl]carbamoyl}-5-(methylsulfonyl)-1,3-dihydro-2H-isoindol-2-yl]-4-oxobutanoic acid]
